Test results from patent publication US10669258B2, “3-sulfonyl-5-aminopyridine-2,4-diol APJ agonists” (BRISTOL-MYERS SQUIBB COMPANY, priority 2016, dated 2020).
pEC50: −log10 of the molar value.

Target: T1, human APJ receptor (Homo sapiens, UniProt P35414)
T1 construct: expressed in transfected cells; host or cells: HEK293
T1 sequence (P35414 1-380): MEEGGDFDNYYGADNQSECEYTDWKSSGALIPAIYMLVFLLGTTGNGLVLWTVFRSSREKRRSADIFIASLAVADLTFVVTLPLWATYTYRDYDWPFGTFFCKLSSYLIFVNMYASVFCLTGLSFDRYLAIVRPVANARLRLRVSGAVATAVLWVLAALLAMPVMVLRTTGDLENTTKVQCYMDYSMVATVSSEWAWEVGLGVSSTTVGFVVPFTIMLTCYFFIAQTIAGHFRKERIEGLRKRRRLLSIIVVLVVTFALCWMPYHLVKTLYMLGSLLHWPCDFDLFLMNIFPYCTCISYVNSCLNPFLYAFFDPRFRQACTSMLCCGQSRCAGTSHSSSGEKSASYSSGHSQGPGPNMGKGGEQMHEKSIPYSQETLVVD
Assay: Intracellular cAMP accumulation assay (APJ hcAMP, HTRF)
Assay type: cell-based
Conditions: HEK293 cells stably expressing human APJ receptor; inhibition of forskolin-mediated cAMP production; Table 1; read-out: hAPJ cAMP EC50 Potency range
Method in brief: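 HEK293 cells stably expressing the receptor (5,000/well) treated with compound plus […] and 2 μM forskolin for 30 min at room temperature; cAMP by HTRF against a cAMP standard curve. EC50 from variable-slope sigmoidal fit; Ymax as % of (Pyr1)apelin-13 inhibition.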

Row | pEC50 | Structure (SMILES)
1 | 8.00 to 11.00 | CCCCc1nc(O)c(S(=O)(=O)c2ccc(-c3ccccc3C#N)cc2)c(O)c1N(CC)c1ccccc1 [Example 083, 4′-((6-butyl-5-(ethyl(phenyl)amino)-2,4-dihydroxypyridin-3-yl)sulfonyl)-[1,1′-biphenyl]-2-carbonitrile]
2 | 7.00 to 8.00 | CCCCc1nc(O)c(S(=O)(=O)c2ccccc2)c(O)c1N(CC)c1ccccc1 [Example 084, 6-butyl-5-(ethyl(phenyl)amino)-3-(phenylsulfonyl)pyridine-2,4-diol]
3 | 8.00 to 11.00 | CCCCc1nc(O)c(S(=O)(=O)c2ccc(-c3ccccc3C(N)=O)cc2)c(O)c1N(CC)c1ccccc1 [Example 085, 4′-((6-butyl-5-(ethyl(phenyl)amino)-2,4-dihydroxypyridin-3-yl)sulfonyl)-[1,1′-biphenyl]-2-carboxamide]
4 | 8.00 to 11.00 | CCCCc1nc(O)c(S(=O)(=O)c2ccc(-c3ccc(F)nc3C)cc2)c(O)c1N(CC)c1ccccc1 [Example 086, 6-butyl-5-(ethyl(phenyl)amino)-3-((4-(6-fluoro-2-methylpyridin-3-yl)phenyl)sulfonyl)pyridine-2,4-diol]
5 | 8.00 to 11.00 | CCCCc1nc(O)c(S(=O)(=O)c2ccc(-c3ccccc3COC)cc2)c(O)c1N(CC)c1ccccc1 [Example 087, 6-butyl-5-(ethyl(phenyl)amino)-3-((2′-(methoxymethyl)-[1,1′-biphenyl]-4-yl)sulfonyl)pyridine-2,4-diol]
6 | 7.00 to 8.00 | CCCCc1nc(O)c(S(=O)(=O)c2ccc(-c3ccccc3)cc2)c(O)c1N(CC)c1ccccc1 [Example 088, 3-([1,1′-biphenyl]-4-ylsulfonyl)-6-butyl-5-(ethyl(phenyl)amino)pyridine-2,4-diol]
7 | 8.00 to 11.00 | CCCCc1nc(O)c(S(=O)(=O)c2ccc(-c3ccncc3C)cc2)c(O)c1N(C)c1cccc(C)c1 [Example 090, 6-butyl-5-(methyl(m-tolyl)amino)-3-((4-(3-methylpyridin-4-yl)phenyl)sulfonyl)pyridine-2,4-diol]
8 | 8.00 to 11.00 | CCCCc1nc(O)c(S(=O)(=O)c2ccc(-c3ccnc(F)c3C)cc2)c(O)c1N(C)c1cccc(C)c1 [Example 091, 6-butyl-3-((4-(2-fluoro-3-methylpyridin-4-yl)phenyl)sulfonyl)-5-(methyl(m-tolyl)amino)pyridine-2,4-diol]
9 | 8.00 to 11.00 | CCCCc1nc(O)c(S(=O)(=O)c2ccc(-c3ccnc(F)c3C)cc2)c(O)c1N(C)c1ccc(C)cc1 [Example 092, 6-butyl-3-((4-(2-fluoro-3-methylpyridin-4-yl)phenyl)sulfonyl)-5-(methyl(p-tolyl)amino)pyridine-2,4-diol]
10 | 7.00 to 8.00 | CCCCc1nc(O)c(S(=O)(=O)c2ccc(Br)cc2)c(O)c1N(C)c1cccc(C)c1 [Example 093, 3-((4-bromophenyl)sulfonyl)-6-butyl-5-(methyl(m-tolyl)amino)pyridine-2,4-diol]
11 | 8.00 to 11.00 | CCCCc1nc(O)c(S(=O)(=O)c2ccc(-c3ccncc3C)cc2)c(O)c1N(C)c1ccc(C)cc1 [Example 094, 6-butyl-5-(methyl(p-tolyl)amino)-3-((4-(3-methylpyridin-4-yl)phenyl)sulfonyl)pyridine-2,4-diol]
12 | 7.00 to 8.00 | CCCCc1nc(O)c(S(=O)(=O)c2ccc(-c3ccc(F)nc3C)cc2)c(O)c1N(C)c1cccc(C)c1 [Example 095, 6-butyl-3-((4-(6-fluoro-2-methylpyridin-3-yl)phenyl)sulfonyl)-5-(methyl(m-tolyl)amino)pyridine-2,4-diol]
13 | 8.00 to 11.00 | CCCCc1nc(O)c(S(=O)(=O)c2ccc(-c3cccnc3C)cc2)c(O)c1N(C)c1cccc(C)c1 [Example 096, 6-butyl-5-(methyl(m-tolyl)amino)-3-((4-(2-methylpyridin-3-yl)phenyl)sulfonyl)pyridine-2,4-diol]
14 | 7.00 to 8.00 | CCCCc1nc(O)c(S(=O)(=O)c2ccc(-c3cccnc3C)cc2)c(O)c1N(C)c1ccc(C)cc1 [Example 097, 6-butyl-5-(methyl(p-tolyl)amino)-3-((4-(2-methylpyridin-3-yl)phenyl)sulfonyl)pyridine-2,4-diol]
15 | 8.00 to 11.00 | CCCCc1nc(O)c(S(=O)(=O)c2ccc(-n3cc(C)ccc3=O)cc2)c(O)c1N(C)c1ccc(C)cc1 [Example 098, 1-(4-((6-butyl-2,4-dihydroxy-5-(methyl(p-tolyl)amino)pyridin-3-yl)sulfonyl)phenyl)-5-methylpyridin-2(1H)-one]
16 | 7.00 to 8.00 | CCCCc1nc(O)c(S(=O)(=O)c2ccc(-n3cc(C)ccc3=O)cc2)c(O)c1N(C)c1cccc(C)c1 [Example 099, 1-(4-((6-butyl-2,4-dihydroxy-5-(methyl(m-tolyl)amino)pyridin-3-yl)sulfonyl)phenyl)-5-methylpyridin-2(1H)-one]

Row | pEC50 | Structure (SMILES)
17 | 7.00 to 8.00 | CCCCc1nc(O)c(S(=O)(=O)c2ccc(C3CC3)cc2)c(O)c1N(C)c1ccc(C)cc1 [Example 100, 6-butyl-3-((4-cyclopropylphenyl)sulfonyl)-5-(methyl(p-tolyl)amino)pyridine-2,4-diol]
18 | 8.00 to 11.00 | CCCCc1nc(O)c(S(=O)(=O)c2ccc(-c3cccnc3C)cc2)c(O)c1N(C)c1cccc(F)c1 [Example 101, 6-butyl-5-((3-fluorophenyl)(methyl)amino)-3-((4-(2-methylpyridin-3-yl)phenyl)sulfonyl)pyridine-2,4-diol]
19 | 7.00 to 8.00 | CCCCc1nc(O)c(S(=O)(=O)c2ccc(-c3cccnc3C)cc2)c(O)c1N(C)c1cccc(Cl)c1 [Example 102, 6-butyl-5-((3-chlorophenyl)(methyl)amino)-3-((4-(2-methylpyridin-3-yl)phenyl)sulfonyl)pyridine-2,4-diol]
20 | 8.00 to 11.00 | CCCCc1nc(O)c(S(=O)(=O)c2ccc(-c3ccnc(F)c3C)cc2)c(O)c1N(C)c1ccc(Cl)cc1 [Example 103, 6-butyl-5-((4-chlorophenyl)(methyl)amino)-3-((4-(2-fluoro-3-methylpyridin-4-yl)phenyl)sulfonyl)pyridine-2,4-diol]
21 | 8.00 to 11.00 | CCCCc1nc(O)c(S(=O)(=O)c2ccc(-c3ccncc3C)cc2)c(O)c1N(C)c1cccc(F)c1 [Example 104, 6-butyl-5-((3-fluorophenyl)(methyl)amino)-3-((4-(3-methylpyridin-4-yl)phenyl)sulfonyl)pyridine-2,4-diol]
22 | 7.00 to 8.00 | CCCCc1nc(O)c(S(=O)(=O)c2ccc(-c3ccc(F)nc3C)cc2)c(O)c1N(C)c1cccc(Cl)c1 [Example 105, 6-butyl-5-((3-chlorophenyl)(methyl)amino)-3-((4-(6-fluoro-2-methylpyridin-3-yl)phenyl)sulfonyl)pyridine-2,4-diol]
23 | 8.00 to 11.00 | CCCCc1nc(O)c(S(=O)(=O)c2ccc(-c3ccnc(F)c3C)cc2)c(O)c1N(C)c1cccc(F)c1 [Example 106, 6-butyl-3-((4-(2-fluoro-3-methylpyridin-4-yl)phenyl)sulfonyl)-5-((3-fluorophenyl)(methyl)amino)pyridine-2,4-diol]
24 | 8.00 to 11.00 | CCCCc1nc(O)c(S(=O)(=O)c2ccc(-c3ccnc(F)c3C)cc2)c(O)c1N(C)c1cccc(Cl)c1 [Example 107, 6-butyl-5-((3-chlorophenyl)(methyl)amino)-3-((4-(2-fluoro-3-methylpyridin-4-yl)phenyl)sulfonyl)pyridine-2,4-diol]
25 | 8.00 to 11.00 | CCCCc1nc(O)c(S(=O)(=O)c2ccc(-c3ccncc3C)cc2)c(O)c1N(C)c1ccc(Cl)cc1 [Example 108, 6-butyl-5-((4-chlorophenyl)(methyl)amino)-3-((4-(3-methylpyridin-4-yl)phenyl)sulfonyl)pyridine-2,4-diol]
26 | 7.00 to 8.00 | CCCCc1nc(O)c(S(=O)(=O)c2ccc(-c3ccc(F)nc3C)cc2)c(O)c1N(C)c1cccc(F)c1 [Example 109, 6-butyl-3-((4-(6-fluoro-2-methylpyridin-3-yl)phenyl)sulfonyl)-5-((3-fluorophenyl)(methyl)amino)pyridine-2,4-diol]
27 | 8.00 to 11.00 | CCCCc1nc(O)c(S(=O)(=O)c2ccc(-c3ccncc3C)cc2)c(O)c1N(C)c1cccc(Cl)c1 [Example 110, 6-butyl-5-((3-chlorophenyl)(methyl)amino)-3-((4-(3-methylpyridin-4-yl)phenyl)sulfonyl)pyridine-2,4-diol]
28 | 8.00 to 11.00 | CCCCc1nc(O)c(S(=O)(=O)c2ccc(-c3cccnc3C)cc2)c(O)c1N(C)c1ccc(Cl)cc1 [Example 111, 6-butyl-5-((4-chlorophenyl)(methyl)amino)-3-((4-(2-methylpyridin-3-yl)phenyl)sulfonyl)pyridine-2,4-diol]
29 | 8.00 to 11.00 | CCCCc1nc(O)c(S(=O)(=O)c2ccc(-c3ccncc3C)cc2)c(O)c1N(C)c1ccccc1F [Example 112, 6-butyl-5-((2-fluorophenyl)(methyl)amino)-3-((4-(3-methylpyridin-4-yl)phenyl)sulfonyl)pyridine-2,4-diol]
30 | 8.00 to 11.00 | CCCCc1nc(O)c(S(=O)(=O)c2ccc(-c3ccncc3C)cc2)c(O)c1N(C)c1cccc(C#N)c1 [Example 113, 3-((2-butyl-4,6-dihydroxy-5-((4-(3-methylpyridin-4-yl)phenyl)sulfonyl)pyridin-3-yl)(methyl)amino)benzonitrile]
31 | 8.00 to 11.00 | CCN(c1ccccc1)c1c(-c2cccc(C)c2)nc(O)c(S(=O)(=O)c2ccc(-c3ccc(F)nc3C)cc2)c1O [Example 114, 5-(ethyl(phenyl)amino)-3-((4-(6-fluoro-2-methylpyridin-3-yl)phenyl)sulfonyl)-6-(m-tolyl)pyridine-2,4-diol]
